Measurements reported in patent publication US8816078B2, “Acidic gas removal by aqueous amine solvents” (Board of Regents, The University of Texas System, priority 2010, dated 2014).
Like-named read-outs stand apart in the source and are kept apart here.

Assays:
[1] = Freeman et al., 2009; cited from earlier work
[2] = Solubility measurements of CO2 loaded PZ/1-MPZ/1,4-DMPZ blends; type: physicochemical
Experimental: Solubility measurements for CO2 loaded 3.9 m PZ/3.9 m 1-MPZ/0.2 m 1,4-DMPZ and 3.75 m PZ/3.75 m 1-MPZ/0.5 m 1,4-DMPZ solutions were taken to predict the solubility envelope of these blends. The solubility of the blends at varying loadings and temperatures are shown in FIG. 7 for the 3.9 m PZ/3.9 m 1-MPZ/0.2 m 1,4-DMPZ blend and in FIG. 8 for the 3.75 m PZ/3.75 m 1-MPZ/0.5 m 1,4-DMPZ blend. […] At 0° C., the 8 m blend: 3.75 m PZ/3.75 m 1-MPZ/0.5 m […] was soluble at 2° C. with a lean loading of 0.17 mol CO2/mol alkalinity, in contrast to 8 m PZ, which must be operated at loading above 0.3 to avoid solids precipitation.
A maximum CO2 loading of 0.41 and 0.39 was obtained for the 3.9 m PZ/3.9 m 1-MPZ/0.2 m 1,4-DMPZ blend and the 3.75 m PZ/3.75 m 1-MPZ/0.5 m 1,4 DMPZ blend respectively at room temperature without any solid precipitation. Intermediary loaded solutions were prepared by appropriately mixing the rich loaded and zero loaded solutions and observed at temperatures between 0° C. and the melting point of the solution.

[3] = 25° C.; cited from earlier work
[4] = Cyclic CO2 capacity calculated from the regressed VLE model; type: physicochemical
[5] = Heat of CO2 absorption calculated from the VLE model; type: physicochemical
Experimental: VLE models of CO2 partial pressure were regressed from experimental data to calculate CO2 capacity and enthalpy of CO2 absorption (ΔHabs).
Heat of absorption was calculated from the model mentioned above by applying the following thermodynamic equation: […]
Heat of absorption was calculated from the model mentioned above by applying the Gibbs-Helmholtz equation: […]
The heat absorption of CO2 at a 1.5 kPa, which is an average CO2 partial pressure for lean and rich solutions, was calculated.

[6] = for PCO2* at 40° C.: calculated from CO2 solubility curves
[7] = Solubility and solids precipitation limits of amines in water; type: physicochemical
[8] = Conc. (m): MDEA/PZ 7/2, PZ 8, MEA 7, HEP 7.7, AEP 6, 2-PE 8, AMP 4.8, EDA 12, DGA 10, PZ-MPZ 4/4, MPZ 8
[9] = CO2 Loading 0.035 mol/mole Alkalinity
[10] = CO2 Loading 0.037 mol/mole Alkalinity
[11] = CO2 Loading 0.102 mol/mole Alkalinity
[12] = CO2 Loading 0.104 mol/mole Alkalinity
[13] = CO2 Loading 0.156 mol/mole Alkalinity
[14] = CO2 Loading 0.158 mol/mole Alkalinity
[15] = CO2 Loading 0.209 mol/mole Alkalinity
[16] = CO2 Loading 0.217 mol/mole Alkalinity
[17] = CO2 Loading 0.251 mol/mole Alkalinity
[18] = CO2 Loading 0.266 mol/mole Alkalinity
[19] = CO2 Loading 0.303 mol/mole Alkalinity
[20] = CO2 Loading 0.313 mol/mole Alkalinity, listed as 8 m PZ
[21] = CO2 Loading 0.313 mol/mole Alkalinity, listed as 10 m PZ
[22] = CO2 Loading 0.330 mol/mole Alkalinity

CO2 loadings at which solid H+PZCOO−.H2O is formed [2]: ≥ 0.43
loading above which the solvent must be operated to avoid solids precipitation ([2]; 0° C.): above 0.3
CO2 loadings at which solid PZ.6H2O is formed ([2]; 25° C.): ≤ 0.22
CO2 Capacity [4, 8]: 0.79 mol/kg (water + amine)
cyclic CO2 capacity ([4]; difference between lean and rich CO2 loading at 500 Pa and 5,000 Pa CO2 partial pressure): 0.79 mol CO2/kg (water+amine)
Heat of CO2 absorption (ΔHabs) ([5]; 8 m MPZ, 4 m PZ/4 m MPZ blend, 8 m PZ): 16.7 kcal/mol
ΔHabs@PCO2 = 1.5 kPa [5, 8]: 16.7 kcal/mol
heat absorption of CO2 ([5]; at 1.5 kPa CO2 partial pressure): 16.7 kcal/mol
PCO2* at 40° C. ([6]; CO2 Loading 0 mol/mole Alkalinity): 0.0014 kPa
Transition Temp ([6]; CO2 Loading 0 mol/mole Alkalinity, listed as 8 m PZ): 43.0 °C
Transition Temp ([6]; CO2 Loading 0 mol/mole Alkalinity, listed as 10 m PZ): 43 °C
Transition Temp [6, 9]: 40.0 °C
PCO2* at 40° C. [6, 9]: 0.0023 kPa
Transition Temp [6, 10]: 40.5 °C
PCO2* at 40° C. [6, 10]: 0.0023 kPa
Transition Temp [6, 11]: 38.5 °C
PCO2* at 40° C. [6, 11]: 0.0068 kPa
Transition Temp [6, 12]: 38.5 °C
PCO2* at 40° C. [6, 12]: 0.0070 kPa
Transition Temp [6, 13]: 35 °C
PCO2* at 40° C. [6, 13]: 0.0179 kPa
Transition Temp [6, 14]: 33.0 °C
PCO2* at 40° C. [6, 14]: 0.0185 kPa
Transition Temp [6, 15]: 26.5 °C
PCO2* at 40° C. [6, 15]: 0.0499 kPa
Transition Temp [6, 16]: 27 °C
PCO2* at 40° C. [6, 16]: 0.0589 kPa
Transition Temp [6, 17]: 18.0 °C
PCO2* at 40° C. [6, 17]: 0.1216 kPa
Transition Temp [6, 18]: 18 °C
PCO2* at 40° C. [6, 18]: 0.1679 kPa
Transition Temp [6, 19]: 3.0 °C
PCO2* at 40° C. [6, 19]: 0.3892 kPa
PCO2* at 40° C. [6, 20]: 0.4862 kPa
PCO2* at 40° C. [6, 21]: 0.4830 kPa
Transition Temp [6, 20]: 0 °C
Transition Temp [6, 21]: 5.5 °C
Transition Temp [6, 22]: 0 °C
PCO2* at 40° C. [6, 22]: 0.7252 kPa
CO2 loading needed to maintain an aqueous solution ([6]; room temperature (21° C.)): 0.23 mole CO2 per mole alkalinity
highest CO2 loading usable without risk of solid precipitation ([6]; solvent at 0° C.): ≤ 0.4 moles CO2/equiv PZ
lowest CO2 loading usable without risk of solid precipitation ([6]; solvent at 0° C.): ≥ 0.3 moles CO2/equiv PZ
oxidative degradation [7]: resistant to oxidative degradation
CO2 loading below which PZ.6 H2O solids precipitate ([7]; 0° C.): less than 0.3
CO2 loading above which protonated piperazine carbamate precipitates ([7]; ambient temperature): greater than 0.45 moles/equivalent amine
solubility in water ([7]; zero CO2 loading, ambient temperatures, precipitation of PZ.6H2O): about 2 m
Structure (SMILES): C1CNCCN1 [PZ, piperazine]
temperature up to which highly resistant to thermal degradation [1]: up to 150 °C
solubility in water [3]: less than 2 M
